In patent US9364479B2, “Use of a receptor-type kinase modulator for treating polycystic kidney disease” (SYMPHONY EVOLUTION, INC., priority 2010, dated 2016):

What was measured:
[1] = molecular target: Clk2 (Homo sapiens, UniProt P49760); experiment: In vitro kinase inhibition screen; assay type: biochemical
Experimental: (§1) Further screening was performed using the biochemical assay methods of Example 2. Additional description of the components and concentrations are summarized in Table 8, Table 9, and Table 10, below.

[2] = molecular target: Fes (Homo sapiens, UniProt P07332); experiment: In vitro kinase inhibition screen; assay type: biochemical
Experimental: as §1

[3] = molecular target: MKK7β (Homo sapiens, UniProt O14733); experiment: In vitro kinase inhibition screen; assay type: biochemical
MKK7β, sequence (O14733 whole entry): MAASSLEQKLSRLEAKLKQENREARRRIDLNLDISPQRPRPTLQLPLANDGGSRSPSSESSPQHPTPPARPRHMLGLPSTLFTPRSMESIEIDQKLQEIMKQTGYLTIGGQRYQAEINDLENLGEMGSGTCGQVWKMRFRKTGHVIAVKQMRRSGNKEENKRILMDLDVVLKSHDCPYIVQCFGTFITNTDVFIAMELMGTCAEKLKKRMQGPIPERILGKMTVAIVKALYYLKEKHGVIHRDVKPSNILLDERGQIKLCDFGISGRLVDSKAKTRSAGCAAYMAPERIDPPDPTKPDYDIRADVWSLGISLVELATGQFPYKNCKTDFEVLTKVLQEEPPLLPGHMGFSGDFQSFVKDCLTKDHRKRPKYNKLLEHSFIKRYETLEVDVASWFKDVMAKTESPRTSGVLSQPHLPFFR
Experimental: as §1

[4] = molecular target: CamKIV (Homo sapiens, UniProt Q16566); experiment: In vitro kinase inhibition screen; assay type: biochemical
Experimental: as §1

[5] = molecular target: p70S6K (Homo sapiens, UniProt P23443); experiment: In vitro kinase inhibition screen; assay type: biochemical
p70S6K, sequence (P23443 whole entry): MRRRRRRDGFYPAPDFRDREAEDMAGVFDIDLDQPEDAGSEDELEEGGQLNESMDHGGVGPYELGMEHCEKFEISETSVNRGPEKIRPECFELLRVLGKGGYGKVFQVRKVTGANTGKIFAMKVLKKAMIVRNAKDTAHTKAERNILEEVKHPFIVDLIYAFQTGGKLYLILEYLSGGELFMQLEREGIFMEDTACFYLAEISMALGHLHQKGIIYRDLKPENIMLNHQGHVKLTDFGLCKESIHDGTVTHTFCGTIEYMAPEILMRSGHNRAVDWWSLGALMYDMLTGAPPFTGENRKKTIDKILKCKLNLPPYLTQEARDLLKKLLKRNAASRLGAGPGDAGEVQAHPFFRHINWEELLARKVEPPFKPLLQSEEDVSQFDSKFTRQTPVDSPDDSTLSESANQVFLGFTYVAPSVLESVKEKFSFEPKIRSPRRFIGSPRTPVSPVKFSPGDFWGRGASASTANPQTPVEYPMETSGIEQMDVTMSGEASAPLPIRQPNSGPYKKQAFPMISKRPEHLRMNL
Experimental: as §1

[6] = molecular target: MKK4 (Homo sapiens, UniProt P45985); experiment: In vitro kinase inhibition screen; assay type: biochemical
MKK4, sequence (P45985 whole entry, species assumed): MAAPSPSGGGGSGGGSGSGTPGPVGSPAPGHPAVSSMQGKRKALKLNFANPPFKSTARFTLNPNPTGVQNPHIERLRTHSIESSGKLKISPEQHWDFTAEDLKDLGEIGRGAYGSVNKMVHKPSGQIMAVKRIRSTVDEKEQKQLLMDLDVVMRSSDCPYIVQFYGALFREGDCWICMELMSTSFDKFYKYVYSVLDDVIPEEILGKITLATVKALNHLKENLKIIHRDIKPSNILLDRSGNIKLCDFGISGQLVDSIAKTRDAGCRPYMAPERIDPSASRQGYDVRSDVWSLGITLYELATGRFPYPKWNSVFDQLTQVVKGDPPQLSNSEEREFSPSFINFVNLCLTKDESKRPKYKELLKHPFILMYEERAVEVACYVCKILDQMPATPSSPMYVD
Experimental: as §1

[7] = molecular target: ROCK II (Homo sapiens, UniProt O75116); experiment: In vitro kinase inhibition screen; assay type: biochemical
Experimental: as §1

[8] = molecular target: PRAK (Homo sapiens, UniProt Q8IW41); experiment: In vitro kinase inhibition screen; assay type: biochemical
Experimental: as §1

[9] = molecular target: T1, PKC-ξ; experiment: In vitro kinase inhibition screen; assay type: biochemical
T1 construct: PKC-eta; Human, PanVera
Experimental: as §1

[10] = molecular target: Yes (Homo sapiens, UniProt P07947); experiment: In vitro kinase inhibition screen; assay type: biochemical
Experimental: as §1

[11] = molecular target: c-Raf (Homo sapiens, UniProt P04049); experiment: In vitro kinase inhibition screen; assay type: biochemical
c-Raf, sequence (P04049 whole entry, species assumed): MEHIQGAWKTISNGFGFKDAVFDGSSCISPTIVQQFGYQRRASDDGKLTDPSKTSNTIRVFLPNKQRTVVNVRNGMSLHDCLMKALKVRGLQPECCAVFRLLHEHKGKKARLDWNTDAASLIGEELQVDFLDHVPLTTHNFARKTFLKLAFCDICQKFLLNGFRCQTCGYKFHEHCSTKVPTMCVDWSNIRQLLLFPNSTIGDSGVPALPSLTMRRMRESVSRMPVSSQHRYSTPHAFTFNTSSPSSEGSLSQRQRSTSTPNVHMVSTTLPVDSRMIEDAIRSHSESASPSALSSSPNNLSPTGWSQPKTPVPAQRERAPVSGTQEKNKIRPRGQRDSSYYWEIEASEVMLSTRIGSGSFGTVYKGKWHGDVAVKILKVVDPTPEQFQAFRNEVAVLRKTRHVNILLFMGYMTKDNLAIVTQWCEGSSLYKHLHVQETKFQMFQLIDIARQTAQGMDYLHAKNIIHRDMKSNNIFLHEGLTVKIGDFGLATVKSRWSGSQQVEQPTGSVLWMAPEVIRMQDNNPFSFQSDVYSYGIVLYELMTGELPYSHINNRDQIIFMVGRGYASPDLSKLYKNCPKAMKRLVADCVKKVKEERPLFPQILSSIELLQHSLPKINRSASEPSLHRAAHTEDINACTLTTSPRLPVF
Experimental: as §1

[12] = molecular target: PKCα (Homo sapiens, UniProt P17252); experiment: In vitro kinase inhibition screen; assay type: biochemical
Experimental: as §1

[13] = molecular target: Lyn (Homo sapiens, UniProt P07948); experiment: In vitro kinase inhibition screen; assay type: biochemical
Experimental: as §1

[14] = molecular target: Rsk2 (Homo sapiens, UniProt P51812); experiment: In vitro kinase inhibition screen; assay type: biochemical
Experimental: as §1

[15] = molecular target: CDK3 (Homo sapiens, UniProt Q00526); experiment: In vitro kinase inhibition screen; assay type: biochemical
Experimental: as §1

[16] = molecular target: PKBα (Homo sapiens, UniProt P31749); experiment: In vitro kinase inhibition screen; assay type: biochemical
PKBα, sequence (P31749 whole entry, species assumed): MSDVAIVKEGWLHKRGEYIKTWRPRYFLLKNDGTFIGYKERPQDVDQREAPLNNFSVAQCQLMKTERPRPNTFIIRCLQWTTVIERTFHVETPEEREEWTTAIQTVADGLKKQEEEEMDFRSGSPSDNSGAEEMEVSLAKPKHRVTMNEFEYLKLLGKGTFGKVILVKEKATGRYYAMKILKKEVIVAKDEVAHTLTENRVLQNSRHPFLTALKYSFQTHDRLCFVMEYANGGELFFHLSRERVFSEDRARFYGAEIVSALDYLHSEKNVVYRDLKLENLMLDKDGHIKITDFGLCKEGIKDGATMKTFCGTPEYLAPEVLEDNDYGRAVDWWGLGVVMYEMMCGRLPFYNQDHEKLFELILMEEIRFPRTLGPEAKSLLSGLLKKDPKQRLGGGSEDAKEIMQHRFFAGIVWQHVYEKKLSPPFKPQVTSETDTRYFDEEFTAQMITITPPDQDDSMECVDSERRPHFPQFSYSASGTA
Experimental: as §1

[17] = molecular target: MEK1 (Homo sapiens, UniProt Q02750); experiment: In vitro kinase inhibition screen; assay type: biochemical
MEK1, sequence (Q02750 whole entry, species assumed): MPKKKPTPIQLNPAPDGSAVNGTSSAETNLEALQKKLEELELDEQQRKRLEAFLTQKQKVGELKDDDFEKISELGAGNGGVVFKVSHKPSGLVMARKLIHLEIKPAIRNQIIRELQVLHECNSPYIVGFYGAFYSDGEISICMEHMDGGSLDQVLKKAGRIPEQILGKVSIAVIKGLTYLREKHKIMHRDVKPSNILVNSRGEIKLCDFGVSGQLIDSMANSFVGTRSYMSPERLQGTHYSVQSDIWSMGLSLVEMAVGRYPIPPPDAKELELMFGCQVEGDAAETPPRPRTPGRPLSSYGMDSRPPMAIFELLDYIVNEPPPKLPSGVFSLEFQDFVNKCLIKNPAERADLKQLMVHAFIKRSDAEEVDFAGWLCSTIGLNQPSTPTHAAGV
Experimental: as §1

[18] = molecular target: JNK1α (Homo sapiens, UniProt P45983); experiment: In vitro kinase inhibition screen; assay type: biochemical
JNK1α, sequence (P45983 whole entry): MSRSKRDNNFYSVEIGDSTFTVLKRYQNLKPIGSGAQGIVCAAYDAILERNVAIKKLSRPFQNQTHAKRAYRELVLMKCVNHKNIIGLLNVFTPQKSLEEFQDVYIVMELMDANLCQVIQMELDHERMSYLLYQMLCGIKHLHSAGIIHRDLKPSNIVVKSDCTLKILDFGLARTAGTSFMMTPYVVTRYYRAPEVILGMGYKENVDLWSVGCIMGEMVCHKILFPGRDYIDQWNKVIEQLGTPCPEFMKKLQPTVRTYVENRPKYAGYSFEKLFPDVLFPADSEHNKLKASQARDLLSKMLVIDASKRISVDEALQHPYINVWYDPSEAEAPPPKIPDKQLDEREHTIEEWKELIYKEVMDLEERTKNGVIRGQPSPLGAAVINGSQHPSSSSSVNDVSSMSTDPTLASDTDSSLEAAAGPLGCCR
Experimental: as §1

[19] = molecular target: PDGFR-α (Homo sapiens, UniProt P16234); experiment: In vitro kinase inhibition screen; assay type: biochemical
Experimental: as §1

[20] = molecular target: SGK (Homo sapiens, UniProt O00141); experiment: In vitro kinase inhibition screen; assay type: biochemical
SGK, sequence (O00141 whole entry, species assumed): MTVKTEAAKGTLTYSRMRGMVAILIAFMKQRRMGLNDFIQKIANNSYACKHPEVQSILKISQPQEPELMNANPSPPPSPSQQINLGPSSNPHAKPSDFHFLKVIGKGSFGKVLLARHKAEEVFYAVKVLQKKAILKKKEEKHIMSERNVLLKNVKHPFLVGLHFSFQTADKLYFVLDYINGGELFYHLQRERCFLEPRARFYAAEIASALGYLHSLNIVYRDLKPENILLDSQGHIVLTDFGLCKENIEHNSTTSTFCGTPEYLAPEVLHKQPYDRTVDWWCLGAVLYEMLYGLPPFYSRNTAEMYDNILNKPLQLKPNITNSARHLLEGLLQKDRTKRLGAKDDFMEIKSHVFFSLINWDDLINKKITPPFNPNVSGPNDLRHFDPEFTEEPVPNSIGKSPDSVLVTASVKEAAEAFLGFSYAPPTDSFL
Experimental: as §1

[21] = molecular target: Rsk3 (Homo sapiens, UniProt Q15349); experiment: In vitro kinase inhibition screen; assay type: biochemical
Experimental: as §1

[22] = molecular target: CK2 (Homo sapiens, UniProt P68400); experiment: In vitro kinase inhibition screen; assay type: biochemical
Experimental: as §1

[23] = molecular target: CDK6 (Homo sapiens, UniProt Q00534); experiment: In vitro kinase inhibition screen; assay type: biochemical
Experimental: as §1

[24] = molecular target: CDK1 (Homo sapiens, UniProt P06493); experiment: In vitro kinase inhibition screen; assay type: biochemical
Experimental: as §1

[25] = molecular target: MAPK2 (Homo sapiens, UniProt P28482); experiment: In vitro kinase inhibition screen; assay type: biochemical
Experimental: as §1

[26] = molecular target: IKKβ (Homo sapiens, UniProt O14920); experiment: In vitro kinase inhibition screen; assay type: biochemical
Experimental: as §1

[27] = molecular target: CDK7 (Homo sapiens, UniProt P50613); experiment: In vitro kinase inhibition screen; assay type: biochemical
Experimental: as §1

[28] = molecular target: MAPK1 (Homo sapiens, UniProt P27361); experiment: In vitro kinase inhibition screen; assay type: biochemical
MAPK1, sequence (P27361 whole entry): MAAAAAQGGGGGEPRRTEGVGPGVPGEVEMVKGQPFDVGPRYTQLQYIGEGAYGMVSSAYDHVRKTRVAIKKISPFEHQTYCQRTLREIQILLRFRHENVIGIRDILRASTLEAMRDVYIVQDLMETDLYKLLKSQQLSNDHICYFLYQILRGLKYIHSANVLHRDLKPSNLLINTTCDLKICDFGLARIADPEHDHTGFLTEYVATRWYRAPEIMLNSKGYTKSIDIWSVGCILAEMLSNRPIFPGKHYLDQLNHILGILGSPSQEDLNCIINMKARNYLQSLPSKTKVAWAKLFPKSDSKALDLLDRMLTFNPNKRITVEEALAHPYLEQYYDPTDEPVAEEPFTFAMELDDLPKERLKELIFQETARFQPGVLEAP
Experimental: as §1

[29] = molecular target: Clk1 (Homo sapiens, UniProt P49759); experiment: In vitro kinase inhibition screen; assay type: biochemical
Experimental: as §1

[30] = molecular target: PAK2 (Homo sapiens, UniProt Q13177); experiment: In vitro kinase inhibition screen; assay type: biochemical
Experimental: as §1

[31] = molecular target: MAP4K5 (Homo sapiens, UniProt Q9Y4K4); experiment: In vitro kinase inhibition screen; assay type: biochemical
Experimental: as §1

[32] = molecular target: Rsk1 (Homo sapiens, UniProt Q15418); experiment: In vitro kinase inhibition screen; assay type: biochemical
Experimental: as §1

[33] = molecular target: IKKα (Homo sapiens, UniProt O15111); experiment: In vitro kinase inhibition screen; assay type: biochemical
Experimental: as §1

[34] = molecular target: CSK (Homo sapiens, UniProt P41240); experiment: In vitro kinase inhibition screen; assay type: biochemical
Experimental: as §1

[35] = molecular target: JNK2α (Homo sapiens, UniProt P45984); experiment: In vitro kinase inhibition screen; assay type: biochemical
Experimental: as §1

[36] = molecular target: PKBβ (Homo sapiens, UniProt P31751); experiment: In vitro kinase inhibition screen; assay type: biochemical
Experimental: as §1

[37] = molecular target: SAPK4 (Homo sapiens, UniProt O15264); experiment: In vitro kinase inhibition screen; assay type: biochemical
SAPK4, sequence (O15264 whole entry, species assumed): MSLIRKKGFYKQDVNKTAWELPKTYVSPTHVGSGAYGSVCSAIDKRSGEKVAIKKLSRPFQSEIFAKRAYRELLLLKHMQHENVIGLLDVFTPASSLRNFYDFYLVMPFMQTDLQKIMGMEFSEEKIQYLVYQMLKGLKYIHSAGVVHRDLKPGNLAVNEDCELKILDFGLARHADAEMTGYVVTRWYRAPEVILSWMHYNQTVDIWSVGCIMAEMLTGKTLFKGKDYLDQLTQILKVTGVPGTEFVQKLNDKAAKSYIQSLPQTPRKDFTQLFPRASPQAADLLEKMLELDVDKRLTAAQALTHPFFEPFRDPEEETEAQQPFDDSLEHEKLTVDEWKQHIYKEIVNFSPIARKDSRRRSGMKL
Experimental: as §1

[38] = In vitro kinase inhibition screen; assay type: biochemical
Experimental: as §1

[39] = molecular target: MAPKAP2 (Homo sapiens, UniProt P49137); experiment: In vitro kinase inhibition screen; assay type: biochemical
Experimental: as §1

[40] = system: BT474 human tumor xenograft; experiment: BT474 xenograft, tumor growth; assay type: in vivo; settings: Mus musculus
Experimental: The response of tumors to treatment was determined by comparing the mean tumor weight of the treatment group with the appropriate control group. Percentage inhibition of tumor growth was determined with the following formula: Percentage inhibition=100×[1−(Xf−Xo)/(Yf−Yo)], where Xf and Yf are the mean tumor weights of the treatment and control groups, respectively, on day f, and Xo and Yo are the mean tumor weights of treatment and control groups respectively, on day zero (staged tumor weights after grouping)

Clk2, sequence (P49760 whole entry, species assumed): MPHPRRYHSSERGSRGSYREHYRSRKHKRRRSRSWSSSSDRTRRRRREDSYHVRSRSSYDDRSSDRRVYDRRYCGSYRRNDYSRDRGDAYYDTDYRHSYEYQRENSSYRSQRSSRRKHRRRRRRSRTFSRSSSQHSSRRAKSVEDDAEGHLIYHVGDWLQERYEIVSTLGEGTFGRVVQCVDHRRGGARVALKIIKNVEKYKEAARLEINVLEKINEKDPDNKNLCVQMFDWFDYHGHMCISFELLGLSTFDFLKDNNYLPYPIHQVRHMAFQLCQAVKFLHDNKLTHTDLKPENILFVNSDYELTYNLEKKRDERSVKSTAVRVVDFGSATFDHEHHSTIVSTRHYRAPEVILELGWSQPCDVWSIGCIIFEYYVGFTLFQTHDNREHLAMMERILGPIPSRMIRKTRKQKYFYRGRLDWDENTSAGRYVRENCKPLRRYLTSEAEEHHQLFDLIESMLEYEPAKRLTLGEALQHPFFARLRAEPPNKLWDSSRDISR

COc1cc2c(Nc3ccc(Cl)c(Cl)c3F)ncnc2cc1OC[C@@H]1C[C@@H]2CN(C)C[C@@H]2C1 [XL-647, N-(3,4-dichloro-2-fluorophenyl)-7-({[(3aR,5r,6aS)-2-methyloctahydrocyclopenta[c]pyrrol-5-yl]methyl}oxy)-6-(methyloxy)quinazolin-4-amine]
IC50 [1]: > 10000 nM
IC50 [2]: 474 nM
IC50 [3]: > 1000 nM
IC50 [4]: > 1000 nM
IC50 ([5]; list in excess of 1 μM): > 1000 nM
IC50 ([5]; list in excess of 10 μM): > 10000 nM
IC50 [6]: > 1000 nM
IC50 [7]: > 1000 nM
IC50 [8]: > 1000 nM
IC50 [9]: > 10000 nM
IC50 [10]: 1.1 nM
IC50 [11]: > 1000 nM
IC50 [12]: > 10000 nM
IC50 [13]: 2 nM
IC50 [14]: > 1000 nM
IC50 [15]: > 1000 nM
IC50 [16]: > 10000 nM
IC50 [17]: > 1000 nM
IC50 [18]: > 1000 nM
IC50 [19]: 64.4 ± 7.2 nM
IC50 [20]: > 10000 nM
IC50 [21]: > 1000 nM
IC50 [22]: > 1000 nM
IC50 [23]: > 1000 nM
IC50 [24]: > 1000 nM
IC50 [25]: > 1000 nM
IC50 [26]: > 1000 nM
IC50 [27]: > 1000 nM
IC50 [28]: > 1000 nM
IC50 [29]: > 10000 nM
IC50 [30]: > 1000 nM
IC50 [31]: > 1000 nM
IC50 [32]: > 1000 nM
IC50 [33]: > 1000 nM
IC50 [34]: 402 nM
IC50 [35]: > 1000 nM
IC50 [36]: > 10000 nM
IC50 [37]: > 1000 nM
IC50 [38]: > 1000 nM
IC50 [39]: > 10000 nM
ED50 ([40]; BT-474, qd × 14): 9.8 mg/kg
ED50 ([40]; BT-474, qd × 28): 21.9 mg/kg
